What was measured:
[1] = test system: U937 cells stably expressing Cas9; experiment: Genome-wide CRISPR-Cas9 screen of Compound D response; assay type: cell-based, human
Experimental: FIG. 4A illustrates the schematic showing the design of the genome-wide CRISPR screen to identify molecular determinants of Compound D response. FIG. 4B illustrates the cell proliferation curve of U937-Cas9 cells transduced with the lentiviral sgRNA library and treated with DMSO or Compound D. Three days post-transduction, cells were treated with DMSO or 10 μM Compound D for 9 days. FIG. 4C illustrates normalized sgRNA read count comparison of different treatment conditions and technical replicates on day 3 and day 12 post-transduction of the lentiviral sgRNA library. 150 k sgRNAs are used in the scatter plots. Numbers in the upper right boxes indicate the Pearson correlation coefficient between samples. “***” indicates the correlation p-value is <0.001. sgRNAs targeting UBE2G1 or CRBN were shown in green and red, respectively. FIG. 4D illustrates pathway enrichment analysis of genes enriched by Compound D treatment with log 2 fold change (log 2FC)>2 and false discovery rate (FDR)<0.05 relative to the DMSO control. The color and size of the dots represent adjusted significance level and gene ratio respectively. Gene ratios refer to the number of input genes annotated to an individual pathway as a ratio of all input genes annotated to any Reactome pathway. […] The X axis denotes the Compound D enrichment score shown as log 2FC; the Y axis denotes the gene essentiality score shown as log 2FC (T12_DMSO vs T3_DMSO). Some of these genes were grouped into 10 functional modules with different color coding. […] Enriched pathways from the Reactome database were identified using Fisher's exact test and were selected by adjusted p-value (FDR)<0.05. Pathway nodes are color-coded with different shades of red according to their statistical significance. The grey nodes in the graph depict pathway genes that were enriched by Compound D treatment. The core enriched pathways modulating the response to Compound D are highlighted with green circles. FIGS. 4G and 4H show the log 2FC values of sgRNAs targeting Compound D enriched genes in the functional modules as indicated. […]

GSPT1 = target: T1, GSPT1 (Homo sapiens, UniProt P15170+Q96SW2); experiment: Tandem mass tag (TMT) quantitative mass spectrometry of the global proteome in KG-1; assay type: cell-based; conditions: 0.1 μM, 4 hours
T1 construct: endogenous in cells; host or cells: KG-1 (TMT proteomics); KG1, U937 / U937-Cas9, MOLM-13, OCI-AML2 (immunoblots)
T1 sequence (P15170 1-637 isoform P15170-3): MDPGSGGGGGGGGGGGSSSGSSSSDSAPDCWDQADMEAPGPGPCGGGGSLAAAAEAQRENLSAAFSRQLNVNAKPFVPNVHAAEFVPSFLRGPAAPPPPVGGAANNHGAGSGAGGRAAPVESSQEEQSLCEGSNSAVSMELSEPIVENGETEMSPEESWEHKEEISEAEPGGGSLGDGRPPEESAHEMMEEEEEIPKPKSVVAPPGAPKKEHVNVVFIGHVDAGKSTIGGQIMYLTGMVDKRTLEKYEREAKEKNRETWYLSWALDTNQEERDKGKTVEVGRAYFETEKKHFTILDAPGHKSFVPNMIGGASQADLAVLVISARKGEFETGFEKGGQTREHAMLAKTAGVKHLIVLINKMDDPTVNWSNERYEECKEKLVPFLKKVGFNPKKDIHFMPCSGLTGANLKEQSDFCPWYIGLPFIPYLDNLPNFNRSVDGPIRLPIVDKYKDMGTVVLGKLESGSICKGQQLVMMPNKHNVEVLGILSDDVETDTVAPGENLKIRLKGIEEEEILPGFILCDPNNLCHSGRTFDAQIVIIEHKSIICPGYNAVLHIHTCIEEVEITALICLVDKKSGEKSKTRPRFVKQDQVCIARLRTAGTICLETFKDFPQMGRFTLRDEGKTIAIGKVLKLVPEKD
T1 sequence (Q96SW2 whole entry): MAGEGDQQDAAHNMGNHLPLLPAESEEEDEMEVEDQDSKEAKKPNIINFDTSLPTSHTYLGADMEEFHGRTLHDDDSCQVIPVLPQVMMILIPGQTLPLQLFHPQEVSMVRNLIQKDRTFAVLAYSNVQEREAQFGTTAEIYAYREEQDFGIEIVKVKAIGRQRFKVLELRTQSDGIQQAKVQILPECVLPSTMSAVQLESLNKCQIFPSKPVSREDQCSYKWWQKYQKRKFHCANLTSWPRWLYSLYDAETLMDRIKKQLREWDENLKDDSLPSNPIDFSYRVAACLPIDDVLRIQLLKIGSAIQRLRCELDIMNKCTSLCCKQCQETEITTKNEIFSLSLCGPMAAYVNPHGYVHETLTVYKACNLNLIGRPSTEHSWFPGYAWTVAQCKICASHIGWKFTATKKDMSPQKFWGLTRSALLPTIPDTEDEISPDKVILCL
T1 sequence (Q16531 whole entry partner): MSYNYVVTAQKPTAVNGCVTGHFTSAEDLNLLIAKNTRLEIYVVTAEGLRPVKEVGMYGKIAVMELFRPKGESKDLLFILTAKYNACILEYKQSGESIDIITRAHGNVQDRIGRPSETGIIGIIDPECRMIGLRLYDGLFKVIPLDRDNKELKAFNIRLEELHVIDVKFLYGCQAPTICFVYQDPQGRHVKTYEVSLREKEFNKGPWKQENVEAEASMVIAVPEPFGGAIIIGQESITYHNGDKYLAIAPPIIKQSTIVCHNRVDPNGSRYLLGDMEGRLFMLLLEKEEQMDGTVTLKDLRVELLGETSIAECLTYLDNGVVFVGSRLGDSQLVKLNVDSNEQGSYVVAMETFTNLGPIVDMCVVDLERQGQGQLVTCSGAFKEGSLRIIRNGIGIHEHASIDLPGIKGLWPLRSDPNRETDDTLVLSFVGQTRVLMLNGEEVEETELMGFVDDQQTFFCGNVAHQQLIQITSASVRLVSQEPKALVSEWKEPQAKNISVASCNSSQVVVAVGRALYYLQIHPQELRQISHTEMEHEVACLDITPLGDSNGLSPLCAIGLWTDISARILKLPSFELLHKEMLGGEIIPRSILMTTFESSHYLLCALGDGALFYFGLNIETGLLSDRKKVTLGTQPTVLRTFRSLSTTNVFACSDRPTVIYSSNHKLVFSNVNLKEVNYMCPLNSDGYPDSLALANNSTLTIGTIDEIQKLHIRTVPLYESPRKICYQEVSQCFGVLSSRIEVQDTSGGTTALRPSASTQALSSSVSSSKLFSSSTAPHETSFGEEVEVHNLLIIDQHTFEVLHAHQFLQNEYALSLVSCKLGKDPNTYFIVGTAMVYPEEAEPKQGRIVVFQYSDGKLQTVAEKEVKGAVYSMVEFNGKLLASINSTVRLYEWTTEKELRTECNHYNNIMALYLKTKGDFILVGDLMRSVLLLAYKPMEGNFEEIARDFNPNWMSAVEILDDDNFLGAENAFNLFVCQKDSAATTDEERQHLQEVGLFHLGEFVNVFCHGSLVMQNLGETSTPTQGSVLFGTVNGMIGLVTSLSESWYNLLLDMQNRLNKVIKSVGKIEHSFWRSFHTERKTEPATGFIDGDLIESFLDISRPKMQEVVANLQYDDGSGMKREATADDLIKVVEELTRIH
Experimental: FIG. 2A illustrates the volcano plot of differentially abundant proteins in response to Compound D treatment relative to the DMSO control. KG1 cells were treated with DMSO or 100 nM Compound D for 4 hours and subjected to TMT proteomics analysis. The X-axis denotes the log 2-fold change of Compound D versus the DMSO control for each protein. P-values were corrected for multiple hypothesis testing using the Benjamini-Hoschberg method to arrive at an adjusted-P-value (adj-P, also known as a false discovery rate). The y-axis denotes the −log 10 (adj-P) values indicating statistical significance such that proteins lying above the dotted red line are statistically significant findings with adjusted P-values<0.05. FIG. 2B illustrates the immunoblot analysis of KG1 and U937 cells treated with DMSO or Compound D for 4 hours. Where indicated, cells were pretreated with Bortezomib or MLN4924 for 30 minutes. […]
Like all other cereblon modulators, Compound D contains a glutarimide ring (FIG. 1A) that can bind cereblon and redirect it to target neosubstrates for degradation. Thus, the effect of Compound D on the global proteome in AML cell line KG-1 was assessed using tandem mass tag (TMT) quantitative mass spectrometry.

U937 GCN2-/- cells = experiment: Immunoblot and proliferation (CTG, day 3) of U937 GCN2-/- cells re-expressing GCN2; assay type: cell-based, human; conditions: not with mutants T899A/T904A, K619R, F1143L/R1144L
Experimental: The U937 GCN2−/− cell line is derived from a single clone of U937 parental cells stably infected with a lentiviral CRISPR vector targeting GCN2. […] Cells were incubated with DMSO or 200 nM Compound D and lysed at the indicated time points. Arrows pointing to bands in the blot on the right designate the cleaved forms of caspase-3. […] The U937 GCN2−/− cell line is derived from a single clone of U937 parental cells stably infected with a lentiviral CRISPR vector targeting GCN2. […] Cells were treated with DMSO or Compound D for 24 hours. On day 3 after Compound D treatment, cell proliferation was assessed by CTG. Result shown in all figure panels is representative of at least three biological replicates. Data in FIGS. 13C, 13D and 13E are shown as mean±SD, n=3 technical replicates.
To determine if the activation of the ISR by Compound D is solely mediated by GCN2, the effect of GCN2 ablation on Compound D response was evaluated.

O=C1CCC(N2Cc3cc(CNC(=O)C(F)(F)c4ccc(Cl)cc4)ccc3C2=O)C(=O)N1 (stereo not drawn) [Compound D, 2-(4-chlorophenyl)-N-((2-(2,6-dioxopiperidin-3-yl)-1-oxoisoindolin-5-yl)methyl)-2,2-difluoroacetamide]
growth of U937 cells transduced with the lentiviral CRISPR library ([1]; 10 μM, 9 days): growth arrest of U937 cells
genes whose knockout conferred resistance (sgRNA enrichment) ([1]; U937-Cas9, 1 μM or 10 μM): knockout of CRBN, TSC1, TSC2, ILF2, ILF3, ATF4, GCN2, DDIT4 or GCN1L1 genes conferred resistance to lethal doses of Compound D
genes whose knockout enhanced sensitivity (sgRNA drop-out) ([1]; U937-Cas9, sensitivity screen): knockout of RPTOR, MTOR, RICTOR, GSPT1 or DDX5 enhanced sensitivity to lethal doses of Compound D
GSPT1 protein abundance (GSPT1): significant reduction of GSPT1 protein abundance
effect on the rest of the proteome (GSPT1): minimal effect on the rest of the proteome
response after reintroduction of GCN2 wild-type (U937 GCN2-/- cells): significantly restored the response to Compound D
